Results as given in patent publication US20200361871A1 (Enterprise Therapeutics Ltd., priority 2018, published 2020).

Target: human TMEM16A (TMEM16Aabc variant) (Homo sapiens, UniProt Q5XXA6, DEL476-501, form not given)
Test: Automated whole-cell patch clamp (Qpatch) TMEM16A potentiator assay in FRT cells stably expressing human TMEM16A
Assay type: cell-based
Conditions: for % Potentiation @ 3.33 μM Avg: 3.33 μM solution of test compound, percentage increase of baseline TMEM16A current; for EC50: calculated EC50, Qpatch TMEM16A current at +70 mV
Procedure, shortened: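 FRT cells stably expressing human TMEM16Aabc were recorded by automated whole-cell patch clamp, with intracellular Ca2+ buffered for ~EC20 activation, holding −70 mV and step to +70 mV at 0.05 Hz. Compound was applied cumulatively, 5 min per concentration. Peak current increase as % of baseline was fitted to give EC50 and maximum efficacy.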

human TMEM16A (TMEM16Aabc variant), sequence (Q5XXA6 with tags, fused parts or gaps DEL476-501): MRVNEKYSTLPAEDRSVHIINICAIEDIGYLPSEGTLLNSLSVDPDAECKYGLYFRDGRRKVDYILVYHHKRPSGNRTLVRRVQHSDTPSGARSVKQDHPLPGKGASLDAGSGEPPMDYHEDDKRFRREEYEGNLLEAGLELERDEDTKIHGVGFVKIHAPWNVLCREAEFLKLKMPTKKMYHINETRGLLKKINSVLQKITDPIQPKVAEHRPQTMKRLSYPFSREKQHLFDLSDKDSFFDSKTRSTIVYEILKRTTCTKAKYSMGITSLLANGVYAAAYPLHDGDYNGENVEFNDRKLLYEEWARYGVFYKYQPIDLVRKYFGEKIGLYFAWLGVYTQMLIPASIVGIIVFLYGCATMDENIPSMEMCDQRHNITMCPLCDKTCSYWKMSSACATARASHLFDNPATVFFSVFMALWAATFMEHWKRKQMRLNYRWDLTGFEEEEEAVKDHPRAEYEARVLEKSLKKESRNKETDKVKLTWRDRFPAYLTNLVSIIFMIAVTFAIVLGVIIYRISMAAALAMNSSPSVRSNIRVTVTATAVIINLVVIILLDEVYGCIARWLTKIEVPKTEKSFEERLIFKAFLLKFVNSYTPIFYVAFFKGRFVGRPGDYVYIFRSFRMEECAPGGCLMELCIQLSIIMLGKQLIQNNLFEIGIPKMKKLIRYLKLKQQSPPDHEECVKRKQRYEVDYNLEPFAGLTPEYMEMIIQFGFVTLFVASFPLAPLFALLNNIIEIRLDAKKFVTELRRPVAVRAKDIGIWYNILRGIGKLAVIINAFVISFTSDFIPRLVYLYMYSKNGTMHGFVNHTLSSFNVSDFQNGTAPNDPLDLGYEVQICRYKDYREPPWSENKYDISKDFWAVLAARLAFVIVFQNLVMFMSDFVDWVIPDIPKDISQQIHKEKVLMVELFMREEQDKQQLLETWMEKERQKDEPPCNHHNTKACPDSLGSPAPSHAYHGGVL

Compound | % Potentiation @ 3.33 μM Avg [%] | EC50 [nM]
N#CC1(NC(=O)c2cc(NC(=O)Cc3ccc(Cl)c(O)c3)ccn2)CCOCC1 [Example 92, 4-[[2-(4-Chloro-3-hydroxy-phenyl)acetyl]amino]-N-(4-cyanotetrahydropyran-4-yl)pyridine-2-carboxamide] | 133 | 110
N#CC1(NC(=O)c2cc(NC(=O)Cc3ccccc3Cl)ccn2)CCOCC1 [Example 23.15, 4-[[2-(2-Chlorophenyl)acetyl]amino]-N-(4-cyanotetrahydropyran-4-yl)pyridine-2-carboxamide] | 147 | 1190
COCc1cccc(CC(=O)Nc2ccnc(C(=O)NC(C)(C)C)c2)c1 [Example 69, N-tert-Butyl-4-[[2-[3-(methoxymethyl)phenyl]acetyl]amino]pyridine-2-carboxamide] | 47 | 
CC(C)(C)NC(=O)c1cc(NC(=O)Cc2cc(Cl)ccc2O)c(F)cn1 [Example 28, N-tert-butyl-4-[[2-(5-chloro-2-hydroxy-phenyl)acetyl]amino]-5-fluoro-pyridine-2-carboxamide] | 318 | 400
COc1ccc(F)c(F)c1CC(=O)Nc1cccc(C(=O)NC(C)(C)C)c1 [Example 4.8, N-tert-Butyl-3-[[2-(2,3-difluoro-6-methoxy-phenyl)acetyl]amino]benzamide] | 55 | 2070
O=C(Cc1cc(Cl)ccc1O)Nc1ccnc(C(=O)NC2(CCO)CCOCC2)c1 [Example 42, 4-[[2-(5-Chloro-2-hydroxy-phenyl)acetyl]amino]-N-[4-(2-hydroxyethyl)tetrahydropyran-4-yl]pyridine-2-carboxamide] | 143 | 760
N#CC1(NC(=O)c2cc(NC(=O)Cc3ccc(Cl)cc3)ccn2)CC1 [Example 23, 4-[[2-(4-Chlorophenyl)acetyl]amino]-N-(1-cyanocyclopropyl)pyridine-2-carboxamide] | 93 | 
CC(C)(C)NC(=O)c1cc(NC(=O)NCc2ccccc2)ccn1 [Example 64, 4-(Benzylcarbamoylamino)-N-tert-butyl-pyridine-2-carboxamide] | 55 | 
Cc1ccc(O)c(CC(=O)Nc2ccnc(C(=O)NC(C)(C)C)c2)c1 [Example 15, N-tert-Butyl-4-[[2-(2-hydroxy-5-methyl-phenyl)acetyl]amino]pyridine-2-carboxamide] | 200 | 130
CC(C)(C#N)NC(=O)c1cc(NC(=O)Cc2ccc(C(C)(C)C)c(O)c2)ccn1 [Example 93.4, 4-[[2-(4-tert-Butyl-3-hydroxy-phenyl)acetyl]amino]-N-(1-cyano-1-methyl-ethyl)pyridine-2-carboxamide] | 476 | 70
COc1ccc(COc2ccc(Cl)cc2CC(=O)Nc2ccnc(C(=O)NC(C)(C)C)c2)cc1 [Example 56, N-tert-Butyl-4-[[2-[5-chloro-2-[(4-methoxyphenyl)methoxy]phenyl]acetyl]amino]pyridine-2-carboxamide] | 76 | 
CC1(NC(=O)c2cc(NC(=O)Cc3cc(C(C)(C)C)ccc3O)ccn2)CCC1 [Example 3.6a, 4-[[2-(5-tert-Butyl-2-hydroxy-phenyl)acetyl]amino]-N-(1-methylcyclobutyl)pyridine-2-carboxamide] | 546 | 370
CC#CC(C)(C)NC(=O)c1cc(NC(=O)Cc2cc(Cl)ccc2O)ccn1 [Example 73.1, 4-[[2-(5-Chloro-2-hydroxy-phenyl)acetyl]amino]-N-(1,1-dimethylbut-2-ynyl) pyridine-2-carboxamide] | 389 | 280
CC(C)(C#N)NC(=O)c1cc(NC(=O)Cc2ccccc2Cl)ccn1 [Example 30.3a, 4-[[2-(2-Chlorophenyl)acetyl]amino]-N-(1-cyano-1-methyl-ethyl)pyridine-2-carboxamide] | 221 | 
CC(C)(C)NC(=O)c1cc(NC(=O)[C@@H]2CCc3ccccc32)ccn1 (single isomer, unassigned) [Example 21a, N-tert-Butyl-4-[[(1R)-indane-1-carbonyl]amino]pyridine-2-carboxamide or N-tert-Butyl-4-[[(1S)-indane-1-carbonyl]amino]pyridine-2-carboxamide] | 99 | 1570
CC(CC(=O)Nc1ccnc(C(=O)NC(C)(C)C#N)c1)c1ccc(F)cc1 (centres unmarked) [Example 83.31, N-(1-Cyano-1-methyl-ethyl)-4-[3-(4-fluorophenyl)butanoylamino]pyridine-2-carboxamide] | 78 | 

Compound | % Potentiation @ 3.33 μM Avg [%] | EC50 [nM]
CC12CC(NC(=O)c3cc(NC(=O)Cc4ccccc4Cl)ccn3)(C1)C2 [Example 30.4, 4-[[2-(2-Chlorophenyl)acetyl]amino]-N-(1-methyl-3-bicyclo[1.1.1]pentanyl)pyridine-2-carboxamide] | 95 | 750
O=C(O)CCCCCCCCCCCNC(=O)c1cc(NC(=O)Cc2cc(Cl)ccc2O)ccn1 [Example 32.1, 12-[[4-[[2-(5-Chloro-2-hydroxy-phenyl)acetyl]amino]pyridine-2-carbonyl]amino]dodecanoic acid] | 246 | 
COc1cccc(F)c1CC(=O)Nc1cccc(C(=O)NC(C)(C)C)c1 [Example 4.7, N-tert-Butyl-3-[[2-(2-fluoro-6-methoxy-phenyl)acetyl]amino]benzamide] | 68 | 
C#CC1(NC(=O)c2cc(NC(=O)Cc3cc(Cl)ccc3O)ccn2)CCCC1 [Example 31.2, 4-[[2-(5-Chloro-2-hydroxy-phenyl)acetyl]amino]-N-(1-ethynylcyclopentyl)pyridine-2-carboxamide] | 110 | 10
O=C(Cc1cc(Cl)ccc1O)Nc1cccc(C(=O)NC2CCCCC2)c1 [Example 7.3, 3-[[2-(5-Chloro-2-hydroxy-phenyl)acetyl]amino]-N-cyclohexyl-benzamide] | 125 | 200
O=C(Cc1cc(Cl)ccc1O)Nc1ccnc(C(=O)NC(CO)c2ccccn2)c1 (centres unmarked) [Example 35.11, 4-[[2-(5-Chloro-2-hydroxy-phenyl)acetyl]amino]-N-[2-hydroxy-1-(2-pyridyl)ethyl] pyridine-2-carboxamide] | 107 | 
O=C(Cc1cc(Cl)ccc1O)Nc1ccnc(C(=O)NC2CCOCC2)c1 [Example 7.11, 4-[[2-(5-Chloro-2-hydroxy-phenyl)acetyl]amino]-N-tetrahydropyran-4-yl-pyridine-2-carboxamide] | 167 | 320
O=C(Cc1cc(Cl)ccc1O)Nc1ccnc(C(=O)NCc2ccncc2)c1 [Example 32.4, 4-[[2-(5-Chloro-2-hydroxy-phenyl)acetyl]amino]-N-(4-pyridylmethyl)pyridine-2-carboxamide] | 187 | 710
CC(C)(C)NC(=O)c1cc(NC(=O)Cc2cc(-c3ccccc3)ccc2O)ccn1 [Example 26, N-tert-Butyl-4-[[2-(2-hydroxy-5-phenyl-phenyl)acetyl]amino]pyridine-2-carboxamide] | 108 | 
N#CC1(NC(=O)c2cccc(NC(=O)Cc3cc(Cl)ccc3O)c2)CCOCC1 [Example 80, 3-[[2-(5-Chloro-2-hydroxy-phenyl)acetyl]amino]-N-(4-cyanotetrahydropyran-4-yl) benzamide] | 130 | 
CC(NCC(F)(F)F)c1ccc(O)c(CC(=O)Nc2ccnc(C(=O)NC(C)(C)C)c2)c1 (centres unmarked) [Example 67, N-tert-Butyl-4-[[2-[2-hydroxy-5-[1-(2,2,2-trifluoroethylamino)ethyl]phenyl]acetyl]amino]pyridine-2-carboxamide] | 158 | 1100
CC(C)(C)c1ccc(O)c(CC(=O)Nc2ccnc(C(=O)NC34CC(C3)C4)c2)c1 [Example 25, N-(3-Bicyclo[1.1.1]pentanyl)-4-[[2-(5-tert-butyl-2-hydroxy-phenyl)acetyl]amino] pyridine-2-carboxamide] | 330 | 370
Cn1c(=O)c(C(=O)Nc2ccnc(C(=O)NC(C)(C)C#N)c2)cc2ccccc21 [Example 83.32, N-[2-[(1-Cyano-1-methyl-ethyl)carbamoyl]-4-pyridyl]-1-methyl-2-oxo-quinoline-3-carboxamide] | -16 | 
CC(C)(C)NC(=O)c1cccc(NC(=O)Cc2ccc(C(F)(F)F)cc2O)c1 [Example 2.19, N-tert-Butyl-3-[[2-[2-hydroxy-4-(trifluoromethyl)phenyl]acetyl]amino]benzamide] | 249 | 460
CC(C)(C)NC(=O)c1cc(NC(=O)[C@@H]2CCc3ccccc32)ccn1 (single isomer, unassigned) [Example 21b, N-tert-Butyl-4-[[(1R)-indane-1-carbonyl]amino]pyridine-2-carboxamide or N-tert-Butyl-4-[[(1S)-indane-1-carbonyl]amino]pyridine-2-carboxamide] | 164 | 1080
